From PubChem BioAssay AID256 (DTP/NCI, 2004)
Where “and” joins values, the source holds several entries; their conditions need not be identical. Equal values may be shown once. Toxic doses and inconclusive results are not listed.

Tested on: CD2F1 mice, L1210 leukemia ip, survival T/C
Assay: NCI In Vivo Anticancer Drug Screen. Data for tumor model L1210 Leukemia (intraperitoneal) in CD2F1 (CDF1) mice
Conditions: higher = longer survival
Summary of the method: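 In this screen, transplantable tumors were grown in mice given either the compound or its vehicle. Results were expressed as the treated measurement relative to the control measurement.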

[1] = endpoint: mean survival time, dose: 100.0 mg/kg/injection, schedule: Q01DX009 (ip), vehicle: saline with Tween-80
[2] = endpoint: mean survival time, dose: 200.0 mg/kg/injection, schedule: Q01DX009 (ip), vehicle: saline with Tween-80
[3] = endpoint: mean survival time, dose: 400.0 mg/kg/injection, schedule: Q01DX009 (ip), vehicle: saline with Tween-80
[4] = endpoint: mean survival time, dose: 50.0 mg/kg/injection, schedule: Q01DX009 (ip), vehicle: Klucel (hydroxypropylcellulose) (HPC)
[5] = endpoint: mean survival time, dose: 100.0 mg/kg/injection, schedule: Q01DX009 (ip), vehicle: Klucel (hydroxypropylcellulose) (HPC)
[6] = endpoint: mean survival time, dose: 200.0 mg/kg/injection, schedule: Q01DX009 (ip), vehicle: Klucel (hydroxypropylcellulose) (HPC)
[7] = endpoint: mean survival time, dose: 25.0 mg/kg/injection, schedule: Q04DX002 (ip), vehicle: saline with Tween-80
[8] = endpoint: mean survival time, dose: 50.0 mg/kg/injection, schedule: Q04DX002 (ip), vehicle: saline with Tween-80
[9] = endpoint: mean survival time, dose: 100.0 mg/kg/injection, schedule: Q04DX002 (ip), vehicle: saline with Tween-80
[10] = endpoint: mean survival time, dose: 200.0 mg/kg/injection, schedule: Q04DX002 (ip), vehicle: saline with Tween-80
[11] = endpoint: mean survival time, dose: 100.0 mg/kg/injection, schedule: Q01DX001 (ip), vehicle: saline
[12] = endpoint: mean survival time, dose: 200.0 mg/kg/injection, schedule: Q01DX001 (ip), vehicle: saline
[13] = endpoint: mean survival time, dose: 400.0 mg/kg/injection, schedule: Q01DX001 (ip), vehicle: saline

CCCCCCCCCCOCCCCCCCCCC
T/C (endpoint: mean survival time, dose: 100.0 mg/kg/injection, schedule: Q01DX009 (ip), vehicle: saline): 95 % of control
T/C (endpoint: mean survival time, dose: 100.0 mg/kg/injection, schedule: Q04DX003 (ip), vehicle: saline): 94 % of control
T/C (endpoint: mean survival time, dose: 200.0 mg/kg/injection, schedule: Q01DX009 (ip), vehicle: saline): 98 % of control
T/C (endpoint: mean survival time, dose: 200.0 mg/kg/injection, schedule: Q04DX003 (ip), vehicle: saline): 101 % of control
T/C (endpoint: mean survival time, dose: 400.0 mg/kg/injection, schedule: Q01DX009 (ip), vehicle: saline): 97 % of control
T/C (endpoint: mean survival time, dose: 400.0 mg/kg/injection, schedule: Q04DX003 (ip), vehicle: saline): 94 % of control

Cc1ccc2scc3c4ccccc4nc-3c2c1
T/C (endpoint: mean survival time, dose: 100.0 mg/kg/injection, schedule: Q04DX003 (ip), vehicle: acetone): 97 % of control

[C-]1=CC2C=CC1C1[C-]=CC21.[Cl][Pd][Cl] (stereo not given)
T/C (endpoint: mean survival time, dose: 12.5 mg/kg/injection, schedule: Q01DX009 (ip), vehicle: saline with Tween-80): 94 % of control

CCCCOC(=S)S.[Pt]
T/C (endpoint: mean survival time, dose: 18.75 mg/kg/injection, schedule: Q04DX003 (ip), vehicle: saline with Tween-80): 101 % of control
T/C (endpoint: mean survival time, dose: 37.5 mg/kg/injection, schedule: Q04DX003 (ip), vehicle: saline with Tween-80): 93 % of control
T/C (endpoint: mean survival time, dose: 75.0 mg/kg/injection, schedule: Q04DX003 (ip), vehicle: saline with Tween-80): 101 % of control
T/C (endpoint: mean survival time, dose: 150.0 mg/kg/injection, schedule: Q04DX003 (ip), vehicle: saline with Tween-80): 101 % of control
T/C (endpoint: mean survival time, dose: 300.0 mg/kg/injection, schedule: Q04DX003 (ip), vehicle: saline with Tween-80): 97 % of control

O=C1c2ccccc2C(=O)c2c(NCCNCCO)ccc(O)c21
T/C (endpoint: mean survival time, dose: 1.25 mg/kg/injection, schedule: Q01DX009 (ip), vehicle: suspension in saline): 100 % of control
T/C (endpoint: mean survival time, dose: 2.5 mg/kg/injection, schedule: Q01DX009 (ip), vehicle: suspension in saline): 101 % of control and 112 % of control
T/C (endpoint: mean survival time, dose: 5.0 mg/kg/injection, schedule: Q01DX009 (ip), vehicle: suspension in saline): 113 % of control and 103 % of control
T/C (endpoint: mean survival time, dose: 7.5 mg/kg/injection, schedule: Q01DX009 (ip), vehicle: saline): 193 % of control
T/C (endpoint: mean survival time, dose: 10.0 mg/kg/injection, schedule: Q01DX009 (ip), vehicle: suspension in saline): 118 % of control and 101 % of control
T/C (endpoint: mean survival time, dose: 15.0 mg/kg/injection, schedule: Q01DX009 (ip), vehicle: saline): 151 % of control
T/C (endpoint: mean survival time, dose: 20.0 mg/kg/injection, schedule: Q01DX009 (ip), vehicle: suspension in saline): 112 % of control
T/C (endpoint: mean survival time, dose: 40.0 mg/kg/injection, schedule: Q01DX009 (ip), vehicle: suspension in saline): 156 % of control
T/C (endpoint: median survival time, dose: 5.0 mg/kg/injection, schedule: Q01DX009 (ip), vehicle: suspension in saline): 123 % of control and 110 % of control
T/C (endpoint: median survival time, dose: 10.0 mg/kg/injection, schedule: Q01DX009 (ip), vehicle: suspension in saline): 115 % of control
T/C (endpoint: median survival time, dose: 20.0 mg/kg/injection, schedule: Q01DX009 (ip), vehicle: suspension in saline): 150 % of control
T/C (endpoint: median survival time, dose: 40.0 mg/kg/injection, schedule: Q01DX009 (ip), vehicle: suspension in saline): 153 % of control and 155 % of control
T/C (endpoint: median survival time, dose: 80.0 mg/kg/injection, schedule: Q01DX009 (ip), vehicle: suspension in saline): 158 % of control and 183 % of control

O=S(O)C(=NC1CCCCC1)NC1CCCCC1
T/C [1]: 90 % of control
T/C [2]: 90 % of control
T/C [3]: 105 % of control

Cc1ccc(C(=O)CC#N)c(C)c1
T/C [1]: 96 % of control
T/C (endpoint: mean survival time, dose: 100.0 mg/kg/injection, schedule: Q04DX003 (ip), vehicle: saline with Tween-80): 98 % of control
T/C (endpoint: mean survival time, dose: 200.0 mg/kg/injection, schedule: Q04DX003 (ip), vehicle: saline with Tween-80): 112 % of control
T/C [3]: 90 % of control
T/C (endpoint: mean survival time, dose: 400.0 mg/kg/injection, schedule: Q04DX003 (ip), vehicle: saline with Tween-80): 102 % of control

COc1ccc(NC(=O)Oc2ccc(NC(C)=O)cc2)c(Cl)c1
T/C [4]: 100 % of control
T/C [5]: 100 % of control
T/C [6]: 107 % of control

[Cl][Pt+2][Cl].[NH-]C1CC1.[NH2-]
T/C (endpoint: mean survival time, dose: 0.39 mg/kg/injection, schedule: Q04DX003 (ip), vehicle: saline): 101 % of control
T/C (endpoint: mean survival time, dose: 0.78 mg/kg/injection, schedule: Q04DX003 (ip), vehicle: saline): 103 % of control and 104 % of control
T/C (endpoint: mean survival time, dose: 1.56 mg/kg/injection, schedule: Q04DX003 (ip), vehicle: saline): 121 % of control and 108 % of control
T/C (endpoint: mean survival time, dose: 3.12 mg/kg/injection, schedule: Q04DX003 (ip), vehicle: saline with Tween-80): 124 % of control

O=C(O)CCCCCCCC(Br)C(Br)CCCCCCCC(=O)O (stereo not given)
T/C [7]: 95 % of control
T/C [8]: 91 % of control
T/C [9]: 91 % of control
T/C [10]: 95 % of control

O=C1CC(c2ccccc2)=NCCN1
T/C (endpoint: mean survival time, dose: 100.0 mg/kg/injection, schedule: Q01DX001 (ip), vehicle: Klucel (hydroxypropylcellulose) (HPC)): 100 % of control
T/C (endpoint: mean survival time, dose: 200.0 mg/kg/injection, schedule: Q01DX001 (ip), vehicle: Klucel (hydroxypropylcellulose) (HPC)): 102 % of control
T/C (endpoint: mean survival time, dose: 400.0 mg/kg/injection, schedule: Q01DX001 (ip), vehicle: Klucel (hydroxypropylcellulose) (HPC)): 103 % of control

COc1cc2c(c3c1c(=O)c1cccc(F)c1n3C)C=CC(C)(C)O2
T/C (endpoint: median survival time, dose: 50.0 mg/kg/injection, schedule: Q01DX009 (ip), vehicle: Klucel (hydroxypropylcellulose) (HPC)): 118 % of control
T/C (endpoint: median survival time, dose: 100.0 mg/kg/injection, schedule: Q01DX009 (ip), vehicle: Klucel (hydroxypropylcellulose) (HPC)): 117 % of control
T/C (endpoint: median survival time, dose: 200.0 mg/kg/injection, schedule: Q01DX009 (ip), vehicle: Klucel (hydroxypropylcellulose) (HPC)): 120 % of control and 90 % of control

CCC(C)N(CCCOC(=O)c1ccc(N)cc1)C(C)CC (stereo not given)
T/C (endpoint: mean survival time, dose: 12.5 mg/kg/injection, schedule: Q04DX003 (ip), vehicle: saline): 103 % of control
T/C (endpoint: mean survival time, dose: 25.0 mg/kg/injection, schedule: Q04DX003 (ip), vehicle: saline): 107 % of control
T/C (endpoint: mean survival time, dose: 50.0 mg/kg/injection, schedule: Q04DX003 (ip), vehicle: saline): 103 % of control

COc1nc(NC2OCC(O)C(O)C2O)cc(=O)n1C (stereo not given)
T/C (endpoint: median survival time, dose: 12.5 mg/kg/injection, schedule: Q01DX005 (ip), vehicle: saline): 102 % of control
T/C (endpoint: median survival time, dose: 25.0 mg/kg/injection, schedule: Q01DX005 (ip), vehicle: saline): 101 % of control
T/C (endpoint: median survival time, dose: 50.0 mg/kg/injection, schedule: Q01DX005 (ip), vehicle: saline): 100 % of control
T/C (endpoint: median survival time, dose: 100.0 mg/kg/injection, schedule: Q01DX005 (ip), vehicle: saline): 105 % of control
T/C (endpoint: median survival time, dose: 200.0 mg/kg/injection, schedule: Q01DX005 (ip), vehicle: saline): 98 % of control

CC1=C(NNS(=O)(=O)c2ccc(C)cc2)CCCC1=O
T/C [7]: 94 % of control
T/C [8]: 97 % of control
T/C [9]: 91 % of control and 96 % of control

COC(=O)c1cocc1C(=O)OC
T/C [9]: 95 % of control
T/C [10]: 91 % of control
T/C (endpoint: mean survival time, dose: 400.0 mg/kg/injection, schedule: Q04DX002 (ip), vehicle: saline with Tween-80): 95 % of control

O=CNCCc1ccc2c(c1)[nH]c1ccccc12
T/C [11]: 95 % of control
T/C [12]: 98 % of control
T/C [13]: 98 % of control

CCCN(CCC)S(=O)(=O)c1ccc(NC(=O)OCc2ccccc2)cc1
T/C [11]: 103 % of control
T/C [12]: 103 % of control
T/C [13]: 93 % of control

CCOC(=O)C(=CNc1ccc(OC)cc1[N+](=O)[O-])C(=O)OCC
T/C (endpoint: mean survival time, dose: 100.0 mg/kg/injection, schedule: Q01DX005 (ip), vehicle: saline with Tween-80): 103 % of control
T/C [1]: 93 % of control
T/C (endpoint: mean survival time, dose: 200.0 mg/kg/injection, schedule: Q01DX005 (ip), vehicle: saline with Tween-80): 97 % of control
T/C [2]: 89 % of control
T/C (endpoint: mean survival time, dose: 400.0 mg/kg/injection, schedule: Q01DX005 (ip), vehicle: saline with Tween-80): 91 % of control
T/C [3]: 89 % of control

Cc1ccc(Cl)cc1NC(=O)Nc1nccs1
T/C [4]: 91 % of control
T/C [5]: 91 % of control
T/C [6]: 102 % of control

[Cl][Mo]([Cl])([Cl])[Cl].[Cl][Mo]([Cl])([Cl])[Cl]
T/C (endpoint: mean survival time, dose: 100.0 mg/kg/injection, schedule: Q04DX002 (ip), vehicle: saline): 112 % of control
T/C (endpoint: mean survival time, dose: 200.0 mg/kg/injection, schedule: Q04DX002 (ip), vehicle: saline): 87 % of control
T/C (endpoint: mean survival time, dose: 400.0 mg/kg/injection, schedule: Q04DX002 (ip), vehicle: saline): 108 % of control

COc1ccc(NC(=O)NCCCl)cc1
T/C (endpoint: mean survival time, dose: 100.0 mg/kg/injection, schedule: Q01DX001 (ip), vehicle: saline with Tween-80): 90 % of control
T/C (endpoint: mean survival time, dose: 200.0 mg/kg/injection, schedule: Q01DX001 (ip), vehicle: saline with Tween-80): 94 % of control
